Data taken from patent publication US4053466A, “(E)-2-[p-(β-substituted-vinyl)phenyl]alkanoic acids” (Kohjin Co., Ltd., priority 1974, dated 1977).

What was measured:
[1] = Farmaco. Edizione Scientifica, 11, 167 (1956); cited from earlier work
[2] = system: rabbit platelet-rich plasma; test: inhibition of collagen-induced platelet aggregation; assay type: cell-based; conditions: 10^-4 M, 0.02N NaOH, 3 minute incubation
Experimental: The activity was evaluated after a 3 minute incubation of a mixture of the platelet aggregation inhibitor and rabbit platelet-rich plasma. […] Accordingly,the relative potency of inhibition of the test compound to aspirin (RASP) at the same concentration was chosen as a direct measure of inhibition potency.

[3] = system: phenylquinone-induced writhing; test: analgesic activity, Phenylquinone-Writhing Syndrome method; assay type: in vivo, mouse (ddN strain); conditions: for number of positive mice: fewer writhings than half of control; for ED50: Mus musculus, po, phenylquinone writhing, positive = fewer writhings than half of control
Experimental: Analgesic activity was determined according to the Phenylquinone-Writhing Syndrome method. ddN strain mice, each weighing about 18 to 22 g were used. Chemical pain was induced by an intraperitoneal injection of 0.1 ml/10 g body weight of 0.03% phenylquinone in 5% aqueous ethanol into the mice. The number of writhings was measured for 15 minutes from 5 minutes after challenge of phenylquinone. Each dose of the drug was given 30 minutes before challenge of phenylquinone.
Ed50 -value was calculated from the number of positive animals showing fewer writhings than half of the matched control group.

[4] = system: carrageenin-induced hind paw edema; test: anti-inflammatory activity, carrageenin-induced hind paw edema; assay type: in vivo, rat (male Wistar); conditions: for number of positive rats: inhibition of 25% or more vs control at 3 hours; for ED50: Rattus norvegicus, po, carrageenin edema, positive = inhibition of 25% or more at 3 hours
Experimental: The anti-inflammatory activity of the compounds against carrageenin-inducededema was determined according to procedure described in C. A. Winter et al., Proc. Soc. Exp. Biol. Med., 111, 544 (1962). Male Wistar rats, each weighing 100 to 120 g were used. Hind paw edema was induced by sub-cutaneous injection of 0.1 ml of 1% carrageenin solution into the left foot pad of each rat. Hind paw volume was measured before and after challenge of carrageenin by immersion of the hind paw down to the lateral malleolus into a glass cylinder containing water. Each dose of the test compound was orally administered one hour before challenge of carrageenin.
ED50 -value was calculated from the number of positive animals showing an inhibitory activity of 25% or more than the matched control group at 3 hours after carrageenin challenge.

## O=C(O)Cc1ccc(C=Cc2ccccc2)cc1 [4-stilbene-acetic acid]
[1]
  anti-cholesterinemic activity: anti-cholesterinemic activity

## O=C(O)Cc1ccc(/C=C/c2cccs2)cc1 [Example 4, (E)-p-(β-2-Thienylvinyl)phenylacetic Acid]
[2]
  RASP (relative potency of inhibition of the test compound to aspirin): 1.0

## CC(C)Cc1ccc(C(C)C(=O)O)cc1 (stereo not shown) [Ibuprofen, 2-(p-isobutylphenyl)propionic acid, reference compound]
[2]
  RASP (relative potency of inhibition of the test compound to aspirin): 0.6
[3]; 25 mg/kg p.o.
  Inhibition in (%) of writhing: 25.5%
  Number of Writhings/15 min., Mean ± S.E.: 27.4 ± 3.3
  number of positive mice: 2
[3]; 50 mg/kg p.o.
  Inhibition in (%) of writhing: 45.7%
  Number of Writhings/15 min., Mean ± S.E.: 20.0 ± 1.5
  number of positive mice: 4
[3]; 100 mg/kg p.o.
  Inhibition in (%) of writhing: 64.4%
  Number of Writhings/15 min., Mean ± S.E.: 13.1 ± 1.9
  number of positive mice: 8
[3]; 200 mg/kg p.o.
  Inhibition in (%) of writhing: 76.4%
  Number of Writhings/15 min., Mean ± S.E.: 8.7 ± 1.6
  number of positive mice: 10
[3]; 400 mg/kg p.o.
  Inhibition in (%) of writhing: 94.8%
  Number of Writhings/15 min., Mean ± S.E.: 1.9 ± 0.8
  number of positive mice: 10
[3]
  ED50: 50 mg/kg
[4]; 10 mg/kg p.o., 2 hours
  Hind Paw Swelling, Mean ± S.E.: 57.4 ± 3.9%
  Percent Inhibition of hind paw swelling: 13.6%
[4]; 10 mg/kg p.o., 3 hours
  Hind Paw Swelling, Mean ± S.E.: 60.8 ± 4.7%
  Percent Inhibition of hind paw swelling: 15.5%
[4]; 10 mg/kg p.o.
  number of positive rats: 1
[4]; 20 mg/kg p.o., 2 hours
  Hind Paw Swelling, Mean ± S.E.: 52.6 ± 3.4%
  Percent Inhibition of hind paw swelling: 20.9%
[4]; 20 mg/kg p.o., 3 hours
  Hind Paw Swelling, Mean ± S.E.: 56.2 ± 2.7%
  Percent Inhibition of hind paw swelling: 21.9%
[4]; 20 mg/kg p.o.
  number of positive rats: 4
[4]; 40 mg/kg p.o., 2 hours
  Hind Paw Swelling, Mean ± S.E.: 47.5 ± 4.0%
  Percent Inhibition of hind paw swelling: 28.6%
[4]; 40 mg/kg p.o., 3 hours
  Hind Paw Swelling, Mean ± S.E.: 51.2 ± 4.0%
  Percent Inhibition of hind paw swelling: 28.9%
[4]; 40 mg/kg p.o.
  number of positive rats: 7
[4]; 80 mg/kg p.o., 2 hours
  Hind Paw Swelling, Mean ± S.E.: 41.8 ± 2.3%
  Percent Inhibition of hind paw swelling: 37.2%
[4]; 80 mg/kg p.o., 3 hours
  Hind Paw Swelling, Mean ± S.E.: 43.9 ± 2.4%
  Percent Inhibition of hind paw swelling: 38.9%
[4]; 80 mg/kg p.o.
  number of positive rats: 9
[4]
  ED50: 24.3 mg/kg

## CC(C(=O)O)c1ccc(/C=C/c2cccs2)cc1 (stereo not drawn) [XG-28, (E)-2-[p-(β-2-Thienylvinyl)phenyl]propionic Acid]
[2]
  RASP (relative potency of inhibition of the test compound to aspirin): 1.6
[3]; 0.5 mg/kg p.o.
  Inhibition in (%) of writhing: 13.5%
  Number of Writhings/15 min., Mean ± S.E.: 16.8 ± 2.1
  number of positive mice: 1
[3]; 5 mg/kg p.o.
  Inhibition in (%) of writhing: 25.8%
  Number of Writhings/15 min., Mean ± S.E.: 14.4 ± 6.0
  number of positive mice: 2
[3]; 10 mg/kg p.o.
  Inhibition in (%) of writhing: 29.4%
  Number of Writhings/15 min., Mean ± S.E.: 13.7 ± 2.4
  number of positive mice: 2
[3]; 25 mg/kg p.o.
  Inhibition in (%) of writhing: 71.1%
  Number of Writhings/15 min., Mean ± S.E.: 5.6 ± 1.8
  number of positive mice: 7
[3]; 50 mg/kg p.o.
  Inhibition in (%) of writhing: 52.1%
  Number of Writhings/15 min., Mean ± S.E.: 9.3 ± 1.6
  number of positive mice: 4
[3]; 100 mg/kg p.o.
  Inhibition in (%) of writhing: 63.9%
  Number of Writhings/15 min., Mean ± S.E.: 7.0 ± 2.0
  number of positive mice: 9
[3]; 200 mg/kg p.o.
  Inhibition in (%) of writhing: 60.3%
  Number of Writhings/15 min., Mean ± S.E.: 7.7 ± 1.2
  number of positive mice: 5
[3]
  ED50: 14.1 mg/kg
[4]; 1 mg/kg p.o., 2 hours
  Hind Paw Swelling, Mean ± S.E.: 73.7 ± 3.7%
  Percent Inhibition of hind paw swelling: 2.4%
[4]; 1 mg/kg p.o., 3 hours
  Hind Paw Swelling, Mean ± S.E.: 73.9 ± 2.6%
  Percent Inhibition of hind paw swelling: -1.0%
[4]; 1 mg/kg p.o.
  number of positive rats: 0
[4]; 2.5 mg/kg p.o., 2 hours
  Hind Paw Swelling, Mean ± S.E.: 67.0 ± 2.6%
  Percent Inhibition of hind paw swelling: 11.3%
[4]; 2.5 mg/kg p.o., 3 hours
  Hind Paw Swelling, Mean ± S.E.: 70.12 ± 2.1%
  Percent Inhibition of hind paw swelling: 4.0%
[4]; 2.5 mg/kg p.o.
  number of positive rats: 0
[4]; 5 mg/kg p.o., 2 hours
  Hind Paw Swelling, Mean ± S.E.: 62.9 ± 3.2%
  Percent Inhibition of hind paw swelling: 16.8%
[4]; 5 mg/kg p.o., 3 hours
  Hind Paw Swelling, Mean ± S.E.: 68.2 ± 2.7%
  Percent Inhibition of hind paw swelling: 6.7%
[4]; 5 mg/kg p.o.
  number of positive rats: 1
[4]; 10 mg/kg p.o., 2 hours
  Hind Paw Swelling, Mean ± S.E.: 60.5 ± 2.3%
  Percent Inhibition of hind paw swelling: 19.8%
[4]; 10 mg/kg p.o., 3 hours
  Hind Paw Swelling, Mean ± S.E.: 65.7 ± 2.0%
  Percent Inhibition of hind paw swelling: 10.1%
[4]; 10 mg/kg p.o.
  number of positive rats: 0
[4]; 20 mg/kg p.o., 2 hours
  Hind Paw Swelling, Mean ± S.E.: 50.7 ± 3.7%
  Percent Inhibition of hind paw swelling: 33.6%
[4]; 20 mg/kg p.o., 3 hours
  Hind Paw Swelling, Mean ± S.E.: 56.0 ± 4.1%
  Percent Inhibition of hind paw swelling: 25.2%
[4]; 20 mg/kg p.o.
  number of positive rats: 6
[4]; 40 mg/kg p.o., 2 hours
  Hind Paw Swelling, Mean ± S.E.: 46.8 ± 2.6%
  Percent Inhibition of hind paw swelling: 38.7%
[4]; 40 mg/kg p.o., 3 hours
  Hind Paw Swelling, Mean ± S.E.: 48.6 ± 3.1%
  Percent Inhibition of hind paw swelling: 35.1%
[4]; 40 mg/kg p.o.
  number of positive rats: 8
[4]; 80 mg/kg p.o., 2 hours
  Hind Paw Swelling, Mean ± S.E.: 49.8 ± 2.6%
  Percent Inhibition of hind paw swelling: 31.3%
[4]; 80 mg/kg p.o., 3 hours
  Hind Paw Swelling, Mean ± S.E.: 49.3± 2.8%
  Percent Inhibition of hind paw swelling: 30.9%
[4]; 80 mg/kg p.o.
  number of positive rats: 7
[4]
  ED50: 23.3 mg/kg

## CC(C)Cc1ccc(CC(=O)O)cc1 [p-Isobutylphenylacetic acid, reference compound]
[2]
  RASP (relative potency of inhibition of the test compound to aspirin): 0.5
